The text below walks through data of ChEMBL document CHEMBL1139983, “The anti-androgen effect of ganoderol B isolated from the fruiting body of Ganoderma lucidum” (Bioorg Med Chem, 2007).

Activity calls are given as the source filed them. The calls are words filed in the database; no cut-off is given here.

Experiment [1] has as its system Rattus norvegicus. In words: Inhibition of testosterone induced ventral prostate growth in Sprague-Dawley rat at 0.1 mg/kg/day, po after 7 days. It counts as functional. To be noted: Prostate gland, 168 h.
Experiment [2] concerns Rattus norvegicus. In words: Inhibition of testosterone induced ventral prostate growth in Sprague-Dawley rat at 0.001 mg/kg/day, po after 7 days. Set-up: scale not given: the % may be the effect or the level left. It counts as functional, Prostate gland.
In experiment [3] the test system is LNCaP. In words: Growth inhibition of human LNCaP cells in presence of testosterone after 3 days. It counts as functional, cell-based.
For experiment [4], the target named is T1, Androgen receptor (Homo sapiens) (UniProt P10275).
T1 sequence (whole entry): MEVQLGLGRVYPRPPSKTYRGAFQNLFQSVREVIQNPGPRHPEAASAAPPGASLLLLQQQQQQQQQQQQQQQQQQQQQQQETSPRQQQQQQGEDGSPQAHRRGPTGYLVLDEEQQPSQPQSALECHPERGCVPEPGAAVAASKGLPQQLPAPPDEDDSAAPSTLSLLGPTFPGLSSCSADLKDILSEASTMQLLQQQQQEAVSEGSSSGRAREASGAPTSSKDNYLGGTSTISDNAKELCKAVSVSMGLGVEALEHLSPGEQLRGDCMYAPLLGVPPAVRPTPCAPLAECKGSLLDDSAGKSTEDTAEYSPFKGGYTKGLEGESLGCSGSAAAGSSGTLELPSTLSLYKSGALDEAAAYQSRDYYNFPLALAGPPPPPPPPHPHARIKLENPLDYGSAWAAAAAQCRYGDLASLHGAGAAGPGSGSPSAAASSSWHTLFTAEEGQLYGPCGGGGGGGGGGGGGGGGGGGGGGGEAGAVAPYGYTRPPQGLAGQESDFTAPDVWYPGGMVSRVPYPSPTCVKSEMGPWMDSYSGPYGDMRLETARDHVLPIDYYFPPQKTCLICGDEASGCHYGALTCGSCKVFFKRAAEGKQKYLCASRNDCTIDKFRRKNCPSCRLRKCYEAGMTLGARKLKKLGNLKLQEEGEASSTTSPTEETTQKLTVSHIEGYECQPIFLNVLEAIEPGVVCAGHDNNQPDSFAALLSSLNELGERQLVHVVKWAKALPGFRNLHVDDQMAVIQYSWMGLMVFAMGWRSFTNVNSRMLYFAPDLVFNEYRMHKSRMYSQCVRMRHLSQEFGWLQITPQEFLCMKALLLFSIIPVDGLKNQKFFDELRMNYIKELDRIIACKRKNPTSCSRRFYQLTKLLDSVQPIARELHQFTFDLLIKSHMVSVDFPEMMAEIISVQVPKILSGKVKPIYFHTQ
Nature of the experiment: Displacement of dihydrotestosterone from human recombinant AR ligand binding domain at 15 uM by fluorescence polarization method. (In general: In fluorescence polarisation assays a small probe gives low polarisation when free and higher when bound to something large.)

Experiment [5] concerns LNCaP. Nature of the experiment: Growth inhibition of human LNCaP cells after 3 days. The format is functional, cell-based.
For experiment [6], the species on record is Rattus norvegicus. Nature of the experiment: Inhibition of steroid 5-alpha-reductase activity in Sprague-Dawley rat liver microsomes at 113 uM after 10 mins. To be noted: Microsome. In general terms: Microsomes from liver hold many membrane-bound enzymes, among them those of drug oxidation.
Experiment [7] deals with LNCaP. In words: Growth inhibition of human LNCaP cells in presence of dihydrotestosterone after 3 days. The format is functional, cell-based.
Experiment [8] in a line: Inhibition of steroid 5-alpha-reductase activity in Sprague-Dawley rat liver microsomes after 10 mins. The arrangement: species or system Microsome.

As for `C/C(=C\CC[C@@H](C)[C@H]1CC[C@@]2(C)C3=CC[C@H]4C(C)(C)[C@@H](O)CC[C@]4(C)C3=CC[C@]12C)CO` [GANODEROL B], the inhibition in vivo at 0.1 mg/kg/day in the experiment with Rattus norvegicus [1] worked out at 49%. For the same compound, the Activity with Rattus norvegicus [2] was 31%; in the experiment with LNCaP [3], “Dose-dependent effect”; in experiment [4] it was 50%; in the experiment on LNCaP [7] it was “Dose-dependent effect”. In the experiment on LNCaP [5], the result was inactive. The compound further registered an inhibition in the experiment filed under Rattus norvegicus [6] of 37%.
Compound `CC(C)(C)NC(=O)[C@H]1CC[C@H]2[C@@H]3CC[C@H]4NC(=O)C=C[C@]4(C)[C@H]3CC[C@]12C` [FINASTERIDE] returned an IC50 in experiment [8] of 0.73 µM.

The term inhibition in vivo denotes the relative decrease from the control value, in per cent. For orientation: inhibition means the drop in the measured response relative to a control, in per cent. As a reminder, the IC50 is the point on the concentration scale where inhibition reaches its midpoint.
